These compounds were tested against T1, 5-hydroxytryptamine receptor 3A (Homo sapiens, UniProt P46098) (assay: Radioligand Binding Assay: The relative affinity of the various compounds for the human 5-HT3 receptor was measured in a radioligand binding assay, using a scintillation proximity assay (SPA) format.).
T1 sequence (P46098 whole entry): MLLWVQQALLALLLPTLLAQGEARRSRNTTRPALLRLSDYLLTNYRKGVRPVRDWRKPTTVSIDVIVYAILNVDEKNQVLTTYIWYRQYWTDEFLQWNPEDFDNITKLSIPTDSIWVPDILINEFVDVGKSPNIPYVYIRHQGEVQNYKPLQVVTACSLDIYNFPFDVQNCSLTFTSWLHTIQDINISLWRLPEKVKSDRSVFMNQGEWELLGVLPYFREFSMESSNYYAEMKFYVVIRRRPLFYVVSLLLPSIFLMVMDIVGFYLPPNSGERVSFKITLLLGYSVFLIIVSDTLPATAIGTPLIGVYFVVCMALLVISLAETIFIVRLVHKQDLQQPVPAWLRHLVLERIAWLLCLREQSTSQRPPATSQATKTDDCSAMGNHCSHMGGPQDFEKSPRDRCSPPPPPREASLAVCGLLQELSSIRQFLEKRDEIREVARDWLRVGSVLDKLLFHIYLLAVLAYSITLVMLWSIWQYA

Compared with `O=C1c2cccc3c2c(cn3S(=O)(=O)c2ccccc2)CCN1[C@@H]1CN2CCC1CC2`, `O=C1c2cccc3c2c(nn3Cc2ccccc2)CCN1[C@@H]1CN2CCC1CC2` is 12-fold lower in Ki: 25 nM for the first, 2 nM for the second. The second binds more tightly here.

Going from `O=C1c2cccc3[nH]nc(c23)CCN1[C@@H]1CN2CCC1CC2` to `O=C1c2cccc3[nH]nc(c23)CCN1[C@H]1CN2CCC1CC2`, the Ki rises from 4 nM to 108 nM (27-fold). The first binds more tightly here.

`CC(C)n1nc2c3c(cccc31)C(=O)N([C@@H]1CN3CCC1CC3)CC2` and `Cn1nc2c3c(cccc31)C(=O)N([C@@H]1CN3CCC1CC3)CC2` are the same in Ki: 2 nM for the first, 2 nM for the second.

Work on `CCn1nc2c3c(cccc31)C(=O)N([C@@H]1CN3CCC1CC3)CC2` yielded a Ki of 1 nM.

— ChEMBL document CHEMBL3638734, “5-HT3 receptor modulators, methods of making, and use thereof” (2013)
